The record followed here is patent publication US20260266804A1, “MODEL FOR ANALYZING INFLAMMATION AND USES THEREOF” (Technion Research & Development Foundation Limited, priority 2022, published 2026).

The subject of data set [1] is aconitase (IRP1 activation). Kind of data set: Tempol in ECs-Raw 264.7 co-culture, aconitase in-gel activity. Particulars: Tempol 3 mM, direct correlation with incubation time. Type of data set: cell-based. How it is done:
(§1) Day before co-culture assembly Caco2 cells were cultivated in an oxygen modified incubator (6% O2). Confluent co-cultures of epithelial cells and macrophages were obtained by seeding 2×10^5 cells per cm^2 surface area. Cell culture dishes employed were 10 cm or 6 well. For Caco2-Raw 264.7 co-cultures, Caco2 cells were seeded, after adherence Raw264.7 cells were added accordingly. For Caco2-BMDM co-cultures, on the six day of bone marrow extraction the cells were plated as previously mentioned, and Caco2 cells were added to them accordingly. Co-cultures were cultivated in an oxygen modified incubator (6% O2) at 37° C. and 5% CO2. Co-culture ratios used were 1:1 or 2:1 or 1:2.
Mitochondrial and cytosolic aconitase activities were assayed in parallel in cell lysates after electrophoretic separation as previously described [Tong et al. Cell metabolism 3, 199-210 (2006)]. Protein concentrations were determined using the Bradford assay (BIO-RAD, Hercules, California). Aconitase activity was detected chromogenically by incubating the gels in 100 mM Tris pH 8, 1 mM NADP, 2.5 mM cis-aconitic acid, 1.2 mM 3-(4,5-dimethylthiazol-2-yl)-2,5-diphenyl tetrazolium bromide, 0.3 mM phenazine methosulfate, 5 mM MgCl2 and 5 Units/ml isocitrate dehydrogenase. All chemicals were purchased from Sigma Missouri.

Data set [2] deals with epithelial pro-inflammatory markers (Caco2 cells). Kind of data set: Pre-conditioning of Caco2 cells with tempol, then Raw 264.7 cells and LPS, qRT-PCR. Type of data set: cell-based, human. The settings on record: tempol 3 mM 16 hours pre-conditioning, then Raw 264.7 and LPS 6 hours. The procedure: Representative SDS-PAGE gels of subcellular fractions, cytosolic nuclear soluble and nuclear chromatic bound fractions (upper). Protein levels were quantified with Image J (lower), values presented as mean±SD. n=4. * DFO 100 Um for 24 hours. C-E. Co-culture of epithelial cells and macrophages with targeted deletion of IRP1 (MΦ Irp1^−/−) didn't restore iron homeostasis in the co-culture upon LPS stimulation. Epithelial cells were co-cultured with BMDM isolated from C57BL/6 mice (MΦ wt) or from IRP^−/− on C57BL/6 background mice (MΦ Irp1^−/−) as described. LPS 200 ng/ml was added for 24 hours. […] Representative immunoblot of FtH. n=8. […] Representative blot of IRP2. n=8. E. Aconitase activities were decreased in epithelial cells and macrophages in EC-MΦ wt and EC-MΦ Irp1^−/− co-cultures. Representative aconitase in-gel assay. n=4. […] Caco2 cells were cultured with tempol (3 mM) for 16 hours, cells were then washed, and Raw 264.7 cells were added. When Raw 264.7 cells were adhered, the excess of cells was washed away and LPS was added for 6 hours. Expression levels were measured by qRT-PCR. n=6.
RNA was extracted using the Trizol reagent (Invitrogen). Cells were harvested directly with Trizol, whereas tissues were first ground in liquid-N2 cooled mortars then incubated with Trizol following manufacturer's instructions. […]
(In general: Real-time PCR tracks product formation cycle by cycle.)

A further data set has as its system ECs-Raw 264.7 co-culture. Kind of data set: Tempol in ECs-Raw 264.7 co-culture, pro-inflammatory markers by RTqPCR. The settings on record: Tempol 3 mM alone, different times, no LPS. The class given is cell-based, human and mouse. How it is done:
as §1
(§2) RNA was extracted using the Trizol reagent (Invitrogen). Cells were harvested directly with Trizol, whereas tissues were first ground in liquid-N2 cooled mortars then incubated with Trizol following manufacturer's instructions. Isolated RNA samples were submitted to DNase treatment using DNase I recombinant, RNase-free kit (Roche). cDNA was prepared using cDNA Reverse Transcription Kit (Quanta biosciences), and the RT-PCRs were performed using SYBR master mix (Applied Biosystems). The delta Ct method was used to calculate a relative expression of the target gene in comparison to topoisomerase 1 for epithelial cells and ubiquitin for macrophage genes.

The subject of a further data set is Caco-2 cells. Kind of data set: SNAP treatment of Caco2 cells, IL-8 mRNA by qRT-PCR. Type of data set: cell-based, human. Particulars: SNAP two sequential doses, 22 hours. How it is done:
(§3) Day before SNAP (Sigma) treatment, Caco2 cells were cultured in working medium with MEM (Sigma) supplemented with 20% heat inactivated FCS (Biological Industries), ferric ammonium citrate (Sigma), non-essential amino acids (Gibco), sodium pyruvate (Gibco), L-glutamine (Biological Industries) and Pen.-strep. (Biological Industries) in an oxygen modified incubator (6% O2) at 37° C. and 5% CO2.
(§4) SNAP was added to the cells for 22 hours in two sequential doses 1 mM each. First dose was added for 6 hours, 20% of the medium was then collected and replaced with working medium containing 5 mM SNAP for additional incubation of […].
as §2

For another data set, the system named is Caco2 cells. Kind of data set: SNAP treatment of 55Fe labeled Caco2 cells, CPM in cells and medium. The class given is cell-based, human. The settings on record: SNAP induced Caco2 cells. The procedure: as §3, §4
Cells were given medium containing transferrin loaded with labeled iron. First labeled Ferric nitrilotriacetate (Fe-(NTA)2) was prepared, by mixing 5 parts of […] (pH=3) in 0.9% NaCl, with 4 parts of 100 mM of ferric chloride solution (FeCl3) in 0.1M HCl and one part of ^55Fe labeled ferric chloride solution (^55FeCl3). The mixture was incubated for 30 minutes at RT. Next, 125 parts of 1 mM human Apotransferrin (Kamada) solution in HBS was mixed with 12.5 parts of NaHCO3 and 10 parts of the labeled Ferric nitrilotriacetate (50 mM). The mixture was then added to the growth medium, 147.5 ul of labeled transferrin was added to 2 ml of growth medium. Cells were labeled with ^55Fe for ON. Then the medium was removed and cells were washed with PBS. […]

Entries after “also recorded” stand apart in the source; their conditions may differ.

Consider `CC1(C)CC(O)CC(C)(C)N1[O]` [tempol], for which the aconitase activities result in data set [1] is “decreased”. Also, in data set [2], the “expression levels of selected epithelial pro-inflammatory markers” value was “significantly increased”. In the data set on ECs-Raw 264.7 co-culture, the “transcription levels of pro-inflammatory markers / inflammatory response” value was “did not elicit any inflammatory response; also recorded: increased trend that was not statistically significant”.

For the compound `CC(=O)N[C@H](C(=O)O)C(C)(C)SN=O` (racemic) [SNAP, S-Nitroso-N-Acetylpenicillamine], the “IL-8 mRNA expression levels / inflammatory response in Caco-2 cells alone” value in the data set on Caco-2 cells is given as “showed an inflammatory response; also recorded: elevated”. Also, in the data set on Caco2 cells (55Fe CPM in the cells), the intracellular iron entry was “reduced”. Besides, the extracellular iron result in the data set with Caco2 cells (55Fe CPM in the medium) is on record as “increased”.
